Measurements taken from US20040096455A1, “Transdermal vaccine delivery device having coated microprotrusions” (priority 2002, published 2004).
Like-named read-outs stand apart in the source and are kept apart here.

Tests used:
[1] = molecular target: T1, ovalbumin (Gallus gallus, UniProt P01012); assay: Solubilization of 0.5 wt % ovalbumin solution by surfactants; type: physicochemical
T1 sequence (P01012 1-386): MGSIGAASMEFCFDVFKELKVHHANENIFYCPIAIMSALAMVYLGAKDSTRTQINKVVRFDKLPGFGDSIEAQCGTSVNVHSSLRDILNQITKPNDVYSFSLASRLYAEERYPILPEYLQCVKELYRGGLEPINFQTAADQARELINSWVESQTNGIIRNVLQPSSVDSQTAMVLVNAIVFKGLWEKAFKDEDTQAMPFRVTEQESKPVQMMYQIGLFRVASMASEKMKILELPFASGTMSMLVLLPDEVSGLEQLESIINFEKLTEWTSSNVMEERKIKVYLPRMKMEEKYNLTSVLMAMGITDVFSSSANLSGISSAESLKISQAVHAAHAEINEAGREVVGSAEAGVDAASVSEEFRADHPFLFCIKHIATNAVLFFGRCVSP
Excerpt: Other surfactants and concentrations were test against a solution 0.5 wt % ovalbumin.

[2] = system: monovalent "split-varion" influenza vaccine (A/Panama/2007/99, H3N2); type: physicochemical, influenza virus
[3] = 0.5 wt % ovalbumin, Surfactant Concentration 0.0085 M
[4] = 0.5 wt % ovalbumin, Surfactant Concentration 0.017 M
[5] = 0.5 wt % ovalbumin, Surfactant Concentration 0.035 M
[6] = 0.5 wt % ovalbumin, Surfactant Concentration 0.052 M
[7] = 0.5 wt % ovalbumin, Surfactant Concentration 0.069 M

CCCCCCCCCCCC[N+](C)(C)C.[Br-] [Dodecyltrimethylammonium Br]
complete solubilization of ovalbumin solution [1, 3]: −
complete solubilization of ovalbumin solution [1, 4]: −
complete solubilization of ovalbumin solution [1, 5]: −
complete solubilization of ovalbumin solution [1, 6]: −
complete solubilization of ovalbumin solution [1, 7]: −

CCCCCCCCCCCC(=O)[O-].[Na+] [Sodium laurate]
complete solubilization of ovalbumin solution [1, 3]: −
complete solubilization of ovalbumin solution [1, 4]: −
complete solubilization of ovalbumin solution [1, 5]: +
complete solubilization of ovalbumin solution [1, 6]: +
complete solubilization of ovalbumin solution [1, 7]: +

CCCCCCCCCCCCCCCCCCOS(=O)(=O)[O-].[Na+] [Sodium octadecylsulfate]
complete solubilization of ovalbumin solution [1]: −

CCCCCCCCOS(=O)(=O)[O-].[Na+] [Sodium octylsulfate]
complete solubilization of ovalbumin solution [1]: −

CCCCCCCCCCCCCCOS(=O)(=O)[O-].[Na+] [Sodium tetradecylsulfate]
complete solubilization of ovalbumin solution [1]: −

CCCCCCCCCC[N+](C)(C)CCCS(=O)(=O)[O-] [Zwittergent 3-10]
Turbidity @ 340 nanometers (200 μg/ml) [2]: 0.120

CCCCCCCCCCCC[N+](C)(C)CCCS(=O)(=O)[O-] [Zwittergent 3-12]
Turbidity @ 340 nanometers (200 μg/ml) [2]: 0.087

CCCCCCCCCCCCCC[N+](C)(C)CCCS(=O)(=O)[O-] [Zwittergent 3-14]
Turbidity @ 340 nanometers (200 μg/ml) [2]: 0.070
